Source: ChEMBL document CHEMBL1149053, “beta-Carbolines from the blue-green alga Dichothrix baueriana” (J Nat Prod, 1994)
Values after ≈ are worked out from the molar mass of the structure shown.

Legend:
LoVo = test: Cytotoxicity against human LoVo cells; type: functional, cell-based
Human alphaherpesvirus 2 = test: Antiviral activity against HSV2 clinical isolate; type: functional

Cn1c2c(Cl)c(Cl)ccc2c2cc[nH]c(=O)c21 [BAUERINE C]
IC50 (LoVo): 0.03 µg/mL (≈ 0.112 µM)
IC90 (Human alphaherpesvirus 2): 2.5 µg/mL (≈ 9.36 µM)

Cn1c2cnccc2c2ccc(Cl)cc21 [BAUERINE A]
IC50 (LoVo): 3 µg/mL (≈ 13.8 µM)
IC90 (Human alphaherpesvirus 2): 2 µg/mL (≈ 9.23 µM)

Cn1c2cnccc2c2ccc(Cl)c(Cl)c21 [BAUERINE B]
IC50 (LoVo): 5 µg/mL (≈ 19.9 µM)
IC90 (Human alphaherpesvirus 2): 3 µg/mL (≈ 11.9 µM)
